Data on 20 molecules can be found in BindingDB's records for doi:10.1016/j.bmc.2019.05.024 (Charles University, 2019).

A short description of this assay: Inhibition of influenza A virus chicken/Nakorn-Patom/Thailand/CU-K2-2004 Neuraminidase N1 at pH 7.4 by DIANA assay.
The term Ki denotes a dissociation constant, usually derived from enzyme kinetics or from competition with a known ligand. `CCC(CC)O[C@@H]1C=C(C(=O)O)C[C@H](n2cc(CNc3cc(F)ccc3OC)nn2)[C@H]1NC(C)=O` registered a Ki of 11 µM. Then `CCC(CC)O[C@@H]1C=C(C(=O)O)C[C@H](n2cc(CO)nn2)[C@H]1NC(C)=O`, with 5.3 µM; and `CCC(CC)O[C@@H]1C=C(C(=O)O)C[C@H](n2cc(CNc3ccccc3)nn2)[C@H]1NC(C)=O`, with 5 µM; and `CCC(CC)O[C@@H]1C=C(C(=O)O)C[C@H](n2cc(CNc3ccccc3C(N)=O)nn2)[C@H]1NC(C)=O`, with 5.1 µM. As for `CCC(CC)O[C@@H]1C=C(C(=O)O)C[C@H](NCc2cn(CC(C)(CO)CO)nn2)[C@H]1NC(C)=O`, the inhibitory constant (Ki) is 0.71 µM. On to `CCC(CC)O[C@@H]1C=C(C(=O)O)C[C@H](n2cc(CNc3ccc(C(N)=O)c(C(F)(F)F)c3)nn2)[C@H]1NC(C)=O`, for which the Ki stood at 5 µM.

As to `CCC(CC)O[C@@H]1C=C(C(=O)O)C[C@H](NCc2cn(CCO)nn2)[C@H]1NC(C)=O`, the inhibition constant (Ki) was 0.47 µM. Molecule `CCC(CC)O[C@@H]1C=C(C(=O)O)C[C@H](n2cc(C[C@H](N)C(=O)O)nn2)[C@H]1NC(C)=O` returned a Ki of 25 µM. For `CCC(CC)O[C@@H]1C=C(C(=O)O)C[C@H](n2cc(-c3cccs3)nn2)[C@H]1NC(C)=O` the value was 7.1 µM; for `CCC(CC)O[C@H]1CC(C(=O)O)=C[C@@H](n2cc(CN3CCS(=O)(=O)CC3)nn2)[C@@H]1NC(C)=O`, 94 µM. As for `CCC(CC)O[C@@H]1C=C(C(=O)O)C[C@H](n2cc(-c3ccsc3)nn2)[C@H]1NC(C)=O`, the affinity corresponds to a Ki of 4 µM. The molecule `CCC(CC)O[C@@H]1C=C(C(=O)O)C[C@H](NCc2cn(CC(=O)NC)nn2)[C@H]1NC(C)=O` yielded a Ki of 0.74 µM.

For `CCC(CC)O[C@@H]1C=C(C(=O)O)C[C@H](n2cc(C[C@@]3(C(=O)O)CCCN3)nn2)[C@H]1NC(C)=O`, affinity was put at a Ki of 49 µM. This Ki is about 66-fold higher than that of the molecule before. `CCC(CC)O[C@@H]1C=C(C(=O)O)C[C@H](n2cc(CNc3ccc(NC(C)=O)cc3)nn2)[C@H]1NC(C)=O` showed a Ki of 5.6 µM. `CCC(CC)O[C@@H]1C=C(C(=O)O)C[C@H](NCc2cn(CC(=O)O)nn2)[C@H]1NC(C)=O` returned an inhibition constant Ki of 4.3 µM. `CCC(CC)O[C@@H]1C=C(C(=O)O)C[C@H](NCc2cn(CC(=O)N(C)C)nn2)[C@H]1NC(C)=O`: the affinity corresponds to a Ki of 3.1 µM.

`CCC(CC)O[C@@H]1C=C(C(=O)O)C[C@H](n2cc(CN(C)c3ccc(OC)cc3)nn2)[C@H]1NC(C)=O` had a Ki of 8.1 µM. Compared with the last molecule, the Ki is about 2.6-fold higher.

`CCC(CC)O[C@@H]1C=C(C(=O)O)C[C@H](n2cc(COCC(C)(CO)CO)nn2)[C@H]1NC(C)=O`: the affinity, expressed as Ki, was 49 µM. The molecule `CCC(CC)O[C@@H]1C=C(C(=O)O)C[C@H](n2cc(CNc3cccc(C(F)(F)F)c3)nn2)[C@H]1NC(C)=O` showed a Ki of 1.9 µM. For `CCC(CC)O[C@@H]1C=C(C(=O)O)C[C@H](NCc2cn(CCN3CCS(=O)(=O)CC3)nn2)[C@H]1NC(C)=O`, the affinity corresponds to a Ki of 6.2 µM.
